pKi: −log10 of the molar value.
These molecules were tested against hNPY1R (Homo sapiens (Human), UniProt P25929) (assay: NPY1R binding assay (SK-N-MC membrane, [125I]-Peptide YY competition)). Settings: crude SK-N-MC membranes endogenously expressing NPY1R; [125I]-Peptide YY (human) 0.05 nM; 120 min at room temperature; read-out: hNPY1R binding Ki.
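Also: bound radioligand separated by filtration over GF/C filter plates and counted, Ki obtained by non-linear regression.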

Sequence of hNPY1R (P25929 whole entry): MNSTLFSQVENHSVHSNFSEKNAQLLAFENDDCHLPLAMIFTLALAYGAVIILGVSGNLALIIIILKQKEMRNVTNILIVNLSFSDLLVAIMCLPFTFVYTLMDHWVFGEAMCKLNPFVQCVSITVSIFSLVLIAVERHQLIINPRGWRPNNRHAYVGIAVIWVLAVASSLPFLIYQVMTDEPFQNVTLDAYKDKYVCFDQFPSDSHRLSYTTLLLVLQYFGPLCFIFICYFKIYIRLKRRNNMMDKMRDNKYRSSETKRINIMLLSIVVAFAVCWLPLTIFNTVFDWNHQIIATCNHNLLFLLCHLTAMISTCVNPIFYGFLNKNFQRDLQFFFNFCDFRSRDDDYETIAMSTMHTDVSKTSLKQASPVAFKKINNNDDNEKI

| SMILES | pKi |
| --- | --- |
| CCC(=O)NCCNC(=O)/N=C(/N)NCCC[C@@H](NC(=O)[C@@H](c1ccc(OCCCNC(=O)CCCCCNC(=O)CN2CCN(CC(=O)O)CCN(CC(=O)O)CCN(CC(=O)O)CC2)cc1)N1Cc2ccccc2C1)C(=O)NCc1ccc(O)cc1 [1B, 2,2′,2″-(10-(2-((6-((3-(4-((1R,4R,Z)-9-amino-4-((4-hydroxybenzyl)carbamoyl)-1-(isoindolin-2-yl)-2,11,16-trioxo-3,8,10,12,15-pentaazaoctadec-9-en-1-yl)phenoxy)propyl)-amino)-6-oxohexyl)amino)-2-oxoethyl)-1,4,7,10-tetraazacyclododecane-1,4,7-triyl)triacetic acid-2,2,2-trifluoroacetic acid (1/1)] | 6.00 to 7.00 |
| CCC(=O)NCCNC(=O)/N=C(/N)NCCC[C@@H](NC(=O)[C@H](c1cccc(NC(=O)CCCNC(=O)CCCCCNC(=O)CN2CCN(CC(=O)O)CCN(CC(=O)O)CCN(CC(=O)O)CC2)c1)N1Cc2ccccc2C1)C(=O)NCc1ccc(O)cc1 [3A, 2,2′,2″-(10-(2-((6-((4-((3-((1S,4R,Z)-9-amino-4-((4-hydroxybenzyl)carbamoyl)-1-(isoindolin-2-yl)-2,11,16-trioxo-3,8,10,12,15-pentaazaoctadec-9-en-1-yl)phenyl)amino)-4-oxobutyl)amino)-6-oxohexyl)amino)-2-oxoethyl)-1,4,7,10-tetraazacyclododecane-1,4,7-triyl)triacetic acid-2,2,2-trifluoroacetic acid (1/1)] | > 8.00 |
| CCC(=O)NCCNC(=O)/N=C(/N)NCCC[C@@H](NC(=O)[C@@H](c1cccc(NC(=O)CCCNC(=O)CCCCCNC(=O)CN2CCN(CC(=O)O)CCN(CC(=O)O)CCN(CC(=O)O)CC2)c1)N1Cc2ccccc2C1)C(=O)NCc1ccc(O)cc1 [3B, 2,2′,2″-(10-(2-((6-((4-((3-((1R,4R,Z)-9-amino-4-((4-hydroxybenzyl)carbamoyl)-1-(isoindolin-2-yl)-2,11,16-trioxo-3,8,10,12,15-pentaazaoctadec-9-en-1-yl)phenyl)amino)-4-oxobutyl)amino)-6-oxohexyl)amino)-2-oxoethyl)-1,4,7,10-tetraazacyclododecane-1,4,7-triyl)triacetic acid] | > 8.00 |
| CCC(=O)NCCNC(=O)/N=C(/N)NCCC[C@@H](NC(=O)[C@H](c1ccccc1)N1Cc2ccccc2C1)C(=O)NCc1ccc(O)cc1 [60A, (R)—N-(4-hydroxybenzyl)-2-((S)-2-(isoindolin-2-yl)-2-phenylacetamido)-5-((Z)-2-((2-propionamidoethyl)carbamoyl)guanidino)pentanamide] | > 8.00 |
| CCC(=O)NCCNC(=O)/N=C(/N)NCCC[C@@H](NC(=O)[C@@H](c1ccccc1)N1Cc2ccccc2C1)C(=O)NCc1ccc(O)cc1 [60B, (R)—N-(4-hydroxybenzyl)-2-((R)-2-(isoindolin-2-yl)-2-phenylacetamido)-5-((Z)-2-((2-propionamidoethyl)carbamoyl)guanidino)pentanamide] | 7.00 to 8.00 |
| CCC(=O)NCCNC(=O)/N=C(/N)NCCC[C@@H](NC(=O)[C@H](c1ccccc1)N1Cc2ccccc2C1)C(=O)NCc1c(F)cc(O)cc1F [61A, (R)—N-(2,6-difluoro-4-hydroxybenzyl)-2-((S)-2-(isoindolin-2-yl)-2-phenylacetamido)-5-((Z)-2-((2-propionamidoethyl)carbamoyl)guanidino)pentanamide] | > 8.00 |
| CCC(=O)NCCNC(=O)/N=C(/N)NCCC[C@@H](NC(=O)[C@@H](c1ccccc1)N1Cc2ccccc2C1)C(=O)NCc1c(F)cc(O)cc1F [61B, (R)—N-(2,6-difluoro-4-hydroxybenzyl)-2-((R)-2-(isoindolin-2-yl)-2-phenylacetamido)-5-((Z)-2-((2-propionamidoethyl)carbamoyl)guanidino)pentanamide] | > 8.00 |
| CCC(=O)NCCNC(=O)/N=C(/N)NCCC[C@@H](NC(=O)[C@H](c1ccc(OCCCN)cc1)N1Cc2ccccc2C1)C(=O)NCc1ccc(O)cc1 [64A, (R)-2-((S)-2-(4-(3-aminopropoxy)phenyl)-2-(isoindolin-2-yl)acetamido)-N-(4-hydroxybenzyl)-5-((Z)-2-((2-propionamidoethyl)carbamoyl)guanidino)pentanamide] | > 8.00 |
| CCC(=O)NCCNC(=O)/N=C(/N)NCCC[C@@H](NC(=O)[C@@H](c1ccc(OCCCN)cc1)N1Cc2ccccc2C1)C(=O)NCc1ccc(O)cc1 [64B] | 7.00 to 8.00 |
| CCNC(=O)/N=C(/N)NCCC[C@@H](NC(=O)[C@H](c1ccccc1)N1Cc2ccc(NCCCN)cc2C1)C(=O)NCc1c(F)cc(O)cc1F [65A, (R)-2-((S)-2-(5-((3-aminopropyl)amino)isoindolin-2-yl)-2-phenylacetamido)-N-(2,6-difluoro-4-hydroxybenzyl)-5-((Z)-2-(ethylcarbamoyl)guanidino)pentanamide] | > 8.00 |
| CCNC(=O)/N=C(/N)NCCC[C@@H](NC(=O)[C@H](c1cccc(NCCCN)c1)N1Cc2ccccc2C1)C(=O)NCc1c(F)cc(O)cc1F [66A, (R)-2-((S)-2-(3-((3-aminopropyl)amino)phenyl)-2-(isoindolin-2-yl)acetamido)-N-(2,6-difluoro-4-hydroxybenzyl)-5-((Z)-2-(ethylcarbamoyl)guanidino)pentanamide] | > 8.00 |
| CCNC(=O)/N=C(/N)NCCC[C@@H](NC(=O)[C@@H](c1cccc(NCCCN)c1)N1Cc2ccccc2C1)C(=O)NCc1c(F)cc(O)cc1F [66B, (R)-2-((R)-2-(3-((3-aminopropyl)amino)phenyl)-2-(isoindolin-2-yl)acetamido)-N-(2,6-difluoro-4-hydroxybenzyl)-5-((Z)-2-(ethylcarbamoyl)guanidino)pentanamide] | > 8.00 |
| N=C(N)NCCC[C@@H](NC(=O)[C@H](c1ccccc1)N1Cc2ccccc2C1=O)C(=O)NCc1ccc(O)cc1 [71A, (R)-5-guanidino-N-(4-hydroxybenzyl)-2-((S)-2-(1-oxoisoindolin-2-yl)-2-phenylacetamido)pentanamide] | < 6.00 |
| N=C(N)NCCC[C@@H](NC(=O)[C@@H](c1ccccc1)N1Cc2ccccc2C1=O)C(=O)NCc1ccc(O)cc1 [71B, (R)-5-guanidino-N-(4-hydroxybenzyl)-2-((R)-2-(1-oxoisoindolin-2-yl)-2-phenylacetamido)pentanamide] | < 6.00 |
| CCCC1CCN([C@@H](C(=O)N[C@H](CCCNC(=N)N)C(=O)NCc2ccc(O)cc2)c2ccccc2)CC1 [78A, (R)-5-guanidino-N-(4-hydroxybenzyl)-2-((R)-2-phenyl-2-(4-propylpiperidin-1-yl)acetamido)pentanamide] | < 6.00 |
| CC1(C)C2CN([C@H](C(=O)N[C@H](CCCNC(=N)N)C(=O)NCc3ccc(O)cc3)c3ccccc3)CC21 (stereo partly drawn) [88A, (2R)-2-((2S)-2-(6,6-dimethyl-3-azabicyclo[3.1.0]hexan-3-yl)-2-phenylacetamido)-5-guanidino-N-(4-hydroxybenzyl)pentanamide] | 6.00 to 7.00 |
| CC1(C)C2CN([C@@H](C(=O)N[C@H](CCCNC(=N)N)C(=O)NCc3ccc(O)cc3)c3ccccc3)CC21 (stereo partly drawn) [88B, (2R)-2-((2R)-2-(6,6-dimethyl-3-azabicyclo[3.1.0]hexan-3-yl)-2-phenylacetamido)-5-guanidino-N-(4-hydroxybenzyl)pentanamide] | < 6.00 |
| CCC(=O)NCCNC(=O)/N=C(/N)NCCC[C@@H](NC(=O)[C@H](c1cccc(NCCCNc2c(NCCCCCCNC(=O)CN3CCN(CC(=O)O)CCN(CC(=O)O)CCN(CC(=O)O)CC3)c(=O)c2=O)c1)N1Cc2ccccc2C1)C(=O)NCc1ccc(O)cc1 [compound 2, 2,2′,2″-(10-(2-((6-((2-((3-((3-((1S,4R,Z)-9-amino-4-((4-hydroxybenzyl)carbamoyl)-1-(isoindolin-2-yl)-2,11,16-trioxo-3,8,10,12,15-pentaazaoctadec-9-en-1-yl)phenyl)amino)propyl)amino)-3,4-dioxocyclobut-1-en-1-yl)amino)hexyl)amino)-2-oxoethyl)-1,4,7,10-tetraazacyclododecane-1,4,7-triyl)triacetic acid-formic acid (1/1)] | > 8.00 |
| CCC(=O)NCCNC(=O)/N=C(/N)NCCC[C@@H](NC(=O)[C@H](c1ccc(OCCCN2CCN(C(=O)CCNC(=O)CN3CCN(CC(=O)O)CCN(CC(=O)O)CCN(CC(=O)O)CC3)CC2)cc1)N1Cc2ccccc2C1)C(=O)NCc1c(F)cc(O)cc1F [compound 4, 2,2′,2″-(10-(2-((3-(4-(3-(4-((1S,4R,Z)-9-amino-4-((2,6-difluoro-4-hydroxybenzyl)carbamoyl)-1-(isoindolin-2-yl)-2,11,16-trioxo-3,8,10,12,15-pentaazaoctadec-9-en-1-yl)phenoxy)propyl)piperazin-1-yl)-3-oxopropyl)amino)-2-oxoethyl)-1,4,7,10-tetraazacyclododecane-1,4,7-triyl)triacetic acid-2,2,2-trifluoroacetic acid (1/1)] | > 8.00 |
| CCC(=O)NCCNC(=O)/N=C(/N)NCCC[C@@H](NC(=O)[C@H](c1ccc(OCCCNC2CCN(C(=O)CCCCCNC(=O)CN3CCN(CC(=O)O)CCN(CC(=O)O)CCN(CC(=O)O)CC3)CC2)cc1)N1Cc2ccccc2C1)C(=O)NCc1c(F)cc(O)cc1F [compound 5, 2,2′,2″-(10-(2-((6-(4-((3-(4-((1S,4R,Z)-9-amino-4-((2,6-difluoro-4-hydroxybenzyl)carbamoyl)-1-(isoindolin-2-yl)-2,11,16-trioxo-3,8,10,12,15-pentaazaoctadec-9-en-1-yl)phenoxy)propyl)amino)piperidin-1-yl)-6-oxohexyl)amino)-2-oxoethyl)-1,4,7,10-tetraazacyclododecane-1,4,7-triyl)triacetic acid-2,2,2-trifluoroacetic acid (1/1)] | > 8.00 |
| CCC(=O)NCCNC(=O)/N=C(/N)NCCC[C@@H](NC(=O)[C@H](c1ccc(OCCCNC(=O)C[C@H](O)C[C@H](O)CCNC(=O)CN2CCN(CC(=O)O)CCN(CC(=O)O)CCN(CC(=O)O)CC2)cc1)N1Cc2ccccc2C1)C(=O)NCc1c(F)cc(O)cc1F [compound 6, 2,2′,2″-(10-(2-(((3R,5R)-7-((3-(4-((1S,4R,Z)-9-amino-4-((2,6-difluoro-4-hydroxybenzyl)carbamoyl)-1-(isoindolin-2-yl)-2,11,16-trioxo-3,8,10,12,15-pentaazaoctadec-9-en-1-yl)phenoxy)propyl)amino)-3,5-dihydroxy-7-oxoheptyl)amino)-2-oxoethyl)-1,4,7,10-tetraazacyclododecane-1,4,7-triyl)triacetic acid-2,2,2-trifluoroacetic acid (1/1)] | > 8.00 |

Source: patent publication US20250213735A1, “NEUROPEPTIDE Y1 RECEPTOR (NPY1R) TARGETED THERAPEUTICS AND USES THEREOF” (Radionetics Oncology, Inc., priority 2023, published 2025)
